In patent US20110039762A1, “TARGETED ANTIMICROBIAL MOIETIES” (C3 JIAN, INC., priority 2009, published 2011):
Entries after “also recorded” stand apart in the source; their conditions may differ. Ends that are not written are not given here.

Experiments:
MRSA [1] = assay: MIC (broth microdilution); type: cell-based, Methicillin-resistant Staphylococcus aureus
Procedure: (§1) Typically, the in vitro antimicrobial activity of antimicrobial agents is tested using standard NCCLS bacterial inhibition assays, or MIC tests (see, National Committee on Clinical Laboratory Standards “Performance Standards for Antimicrobial Susceptibility Testing,” NCCLS Document M100-S5 Vol. 14, No. 16, December 1994; “Methods for dilution antimicrobial susceptibility test for bacteria that grow aerobically-Third Edition,” Approved Standard M7-A3, National Committee for Clinical Standards, Villanova, Pa.).
(§2) Briefly, ˜1×10^5 cfu/mL bacteria were diluted in TH (S. mutans), or Mueller-Hinton (MH) broth (all other organisms) and distributed to 96-well plates. Serially-diluted (2-fold) peptides were then added and the plates incubated at 37° C. for 18-24 h. […] All experiments were conducted 10 times.

S. epidermidis [2] = type: cell-based, Staphylococcus epidermidis; details: S. epidermidis
Procedure: as §1, §2

MRSA [3] = assay: Kill or inhibit growth/proliferation; morphology, biofilm and growth disruption (Tables 5, 6); type: cell-based, Methicillin-resistant Staphylococcus aureus; parameters: key: A: Peptide aggregates; B: Less hyphal formation; Clumps; Diffuse clumps and small polyps; F: Diffuse growth; H: Thin; I: Growth inhibition; Microcolony formation; Rippled; Small polyps; Thick; W: Halo formation on top, microlonies on bottom; also: test concentration or dose not given here
S. epidermidis [4] = assay: as above; type: cell-based, Staphylococcus epidermidis; parameters: key: A: Peptide aggregates; B: Less hyphal formation; Clumps; Diffuse clumps and small polyps; F: Diffuse growth; H: Thin; I: Growth inhibition; Microcolony formation; Rippled; Small polyps; Thick; W: Halo formation on top, microlonies on bottom
S. mutans = assay: as above; type: cell-based, Streptococcus mutans; parameters: key: A: Peptide aggregates; B: Less hyphal formation; Clumps; Diffuse clumps and small polyps; F: Diffuse growth; H: Thin; I: Growth inhibition; Microcolony formation; Rippled; Small polyps; Thick; W: Halo formation on top, microlonies on bottom; also: test concentration or dose not given here
S. pneumoniae [5] = assay: as above; type: cell-based, Streptococcus pneumoniae; parameters: key: A: Peptide aggregates; B: Less hyphal formation; Clumps; Diffuse clumps and small polyps; F: Diffuse growth; H: Thin; I: Growth inhibition; Microcolony formation; Rippled; Small polyps; Thick; W: Halo formation on top, microlonies on bottom
microorganisms = assay: Peptides having multiple activities (targeting/binding, antimicrobial, growth or phenotype altering)
Description: In certain embodiments, peptides described herein can have multiple activities. Thus for example, a peptide can have both binding/targeting activity and antimicrobial activity. Such peptides can be used, e.g., in a chimeric construct, for any or all of these properties. Thus, for example, a peptide designated “B” in Table 8 can be used as a targeting peptide. If it is also designated G or M it can also be used for antimicrobial activity.

A. niger = assay: MIC (broth microdilution); type: cell-based, Aspergillus niger
Procedure: as §1, §2

S. pneumoniae [6] = assay: MIC (broth microdilution); type: cell-based, Streptococcus pneumoniae
Procedure: as §1, §2

[7] = system: microorganisms (e.g., bacteria, yeasts, fungi); assay: Targeting peptide binding to target microorganisms (Table 3); details: preferably 1x PBS; for Target(s): microorganism(s) the targeting peptide binds; for Target(s) (microorganisms bound by the targeting peptide): peptide binding in aqueous buffers varied by peptide solubility
F. nucleatum = assay: Kill or inhibit growth/proliferation; morphology, biofilm and growth disruption (Tables 5, 6); type: cell-based, Fusobacterium nucleatum; parameters: key: A: Peptide aggregates; B: Less hyphal formation; Clumps; Diffuse clumps and small polyps; F: Diffuse growth; H: Thin; I: Growth inhibition; Microcolony formation; Rippled; Small polyps; Thick; W: Halo formation on top, microlonies on bottom; also: test concentration or dose not given here
P. gingivalis = assay: as above; type: cell-based, Porphyromonas gingivalis; parameters: key: A: Peptide aggregates; B: Less hyphal formation; Clumps; Diffuse clumps and small polyps; F: Diffuse growth; H: Thin; I: Growth inhibition; Microcolony formation; Rippled; Small polyps; Thick; W: Halo formation on top, microlonies on bottom
P. aeruginosa = assay: as above; type: cell-based, Pseudomonas aeruginosa; parameters: key: A: Peptide aggregates; B: Less hyphal formation; Clumps; Diffuse clumps and small polyps; F: Diffuse growth; H: Thin; I: Growth inhibition; Microcolony formation; Rippled; Small polyps; Thick; W: Halo formation on top, microlonies on bottom
E. faecalis = assay: as above; type: cell-based, Enterococcus faecalis; parameters: key: A: Peptide aggregates; B: Less hyphal formation; Clumps; Diffuse clumps and small polyps; F: Diffuse growth; H: Thin; I: Growth inhibition; Microcolony formation; Rippled; Small polyps; Thick; W: Halo formation on top, microlonies on bottom; also: test concentration or dose not given here
E. coli = assay: as above; type: cell-based, Escherichia coli; parameters: key: A: Peptide aggregates; B: Less hyphal formation; Clumps; Diffuse clumps and small polyps; F: Diffuse growth; H: Thin; I: Growth inhibition; Microcolony formation; Rippled; Small polyps; Thick; W: Halo formation on top, microlonies on bottom
B. subtilis [8] = assay: MIC (broth microdilution); type: cell-based, Bacillus subtilis
Procedure: as §1, §2

B. subtilis [9] = assay: Kill or inhibit growth/proliferation; morphology, biofilm and growth disruption (Tables 5, 6); type: cell-based, Bacillus subtilis; parameters: key: A: Peptide aggregates; B: Less hyphal formation; Clumps; Diffuse clumps and small polyps; F: Diffuse growth; H: Thin; I: Growth inhibition; Microcolony formation; Rippled; Small polyps; Thick; W: Halo formation on top, microlonies on bottom; also: test concentration or dose not given here
C. jeikeium = assay: as above; type: cell-based, Corynebacterium jeikeium; parameters: key: A: Peptide aggregates; B: Less hyphal formation; Clumps; Diffuse clumps and small polyps; F: Diffuse growth; H: Thin; I: Growth inhibition; Microcolony formation; Rippled; Small polyps; Thick; W: Halo formation on top, microlonies on bottom; also: test concentration or dose not given here
C. albicans = assay: as above; type: cell-based, Candida albicans; parameters: key: A: Peptide aggregates; B: Less hyphal formation; Clumps; Diffuse clumps and small polyps; F: Diffuse growth; H: Thin; I: Growth inhibition; Microcolony formation; Rippled; Small polyps; Thick; W: Halo formation on top, microlonies on bottom
M. luteus = assay: as above; type: cell-based, Micrococcus luteus; parameters: key: A: Peptide aggregates; B: Less hyphal formation; Clumps; Diffuse clumps and small polyps; F: Diffuse growth; H: Thin; I: Growth inhibition; Microcolony formation; Rippled; Small polyps; Thick; W: Halo formation on top, microlonies on bottom
C. jejuni = assay: as above; type: cell-based, Campylobacter jejuni; parameters: key: A: Peptide aggregates; B: Less hyphal formation; Clumps; Diffuse clumps and small polyps; F: Diffuse growth; H: Thin; I: Growth inhibition; Microcolony formation; Rippled; Small polyps; Thick; W: Halo formation on top, microlonies on bottom; also: test concentration or dose not given here
[10] = peptide binding conducted in aqueous buffers varied by peptide solubility
For Organism, effect (morphology, biofilm and growth disruption) in this document: test concentration or dose not given here.
For Organism, effect in this document: test concentration or dose not given here.

Substance: KFQGEFTNIGQSYIVSASHMSTSLNTGK [PF-583]
- MIC (MRSA [1]): MRSA , 50 μM
- MIC (S. epidermidis [2]): S. epidermidis, 50 μM
- Organism, effect (MRSA [3]): MRSA (I)
- Organism, effect (S. epidermidis [4]): S. epidermidis (I)
- Organism, effect (S. mutans): S. mutans (F)
- Organism, effect (S. pneumoniae [5]): S. pneumoniae (D)
- Activities (microorganisms): G B M

Substance: KFSDQIDKGQDALKDKLGDL [PF-525]
- MIC (A. niger): A. niger, 50 μM
- MIC (S. pneumoniae [6]): S. pneumoniae, 50 μM
- Organism, effect (S. pneumoniae [5]): S. pneumoniae (H)
- Activities (microorganisms): G M

Substance: LSEMERRRLRKRA-NH2 [PF-529]
- MIC (A. niger): A. niger, 50 μM
- MIC (S. pneumoniae [6]): S. pneumoniae, 50 μM
- Organism, effect (S. pneumoniae [5]): S. pneumoniae (H)
- Target(s) [7, 10]: S. epidermidis and E. coli and C. albicans and MRSA and S. pneumoniae and E. faecalis and C. jeikeium
- Activities (microorganisms): G B M

Substance: NTNDLLQAFELMGLGMAGVFIVLGILYIVAELLIKIFPVNN [PF-C194]
- Organism, effect (morphology, biofilm and growth disruption) (S. mutans): S. mutans (F)
- Organism, effect (morphology, biofilm and growth disruption) (F. nucleatum): F. nucleatum (T)
- Organism, effect (morphology, biofilm and growth disruption) (P. gingivalis): P. gingivalis (T)
- Target(s) (microorganisms bound by the targeting peptide) [7]: A. naeslundii; also recorded: F. nucleatum; also recorded: P. gingivalis; also recorded: S. mutans; also recorded: T. denticola
- Activities (microorganisms): G B

Substance: NYAVVSHT [PF-209]
- MIC (MRSA [1]): MRSA , 50 μM
- Organism, effect (MRSA [3]): MRSA (I)
- Organism, effect (S. epidermidis [4]): S. epidermidis (C)
- Organism, effect (P. aeruginosa): P. aeruginosa (H)
- Target(s) ([7]; binding in aqueous buffers depending on peptide solubility): C. albicans; also recorded: C. jeikeium; also recorded: C. jejuni
- Activities (microorganisms): G B M

Substance: PDAPRTCYHKPILAALSRIVVTDR [PF-524]
- MIC (S. pneumoniae [6]): S. pneumoniae, 50 μM
- Organism, effect (E. faecalis): E. faecalis (C)
- Organism, effect (MRSA [3]): MRSA (C)
- Organism, effect (S. pneumoniae [5]): S. pneumoniae (M)
- Organism, effect (E. coli): E. coli (M)
- Target(s) [7, 10]: S. epidermidis and E. coli and P. aeruginosa and C. albicans and MRSA and S. pneumoniae and E. faecalis and C. jeikeium
- Activities (microorganisms): G B M

Substance: PF-C052: peptide having multiple activities (SRFRNGV; Peptide with targeting and/or antimicrobial activity)
- Organism, effect (morphology, biofilm and growth disruption) (P. gingivalis): P. gingivalis (H)
- Target(s) (microorganisms bound by the targeting peptide) [7]: A. naeslundii; also recorded: F. nucleatum; also recorded: S. mutans
- Activities (microorganisms): G B

Substance: PF-C089 (MPKRHYYKLEAKALQFGLPFAYSPIQLLK; Peptide with targeting and/or antimicrobial activity)
- Organism, effect (morphology, biofilm and growth disruption) (P. gingivalis): P. gingivalis (R)

Substance: PF-C136: peptide having multiple activities (LILSYQASVYPLFAYLCQQKDY; Peptide with targeting and/or antimicrobial activity)
- Organism, effect (morphology, biofilm and growth disruption) (F. nucleatum): F. nucleatum (C)
- Organism, effect (morphology, biofilm and growth disruption) (P. gingivalis): P. gingivalis (R)
- Target(s) (microorganisms bound by the targeting peptide) [7]: A. naeslundii; also recorded: F. nucleatum; also recorded: P. gingivalis; also recorded: S. mutans; also recorded: T. denticola
- Activities (microorganisms): G B

Substance: PF-C180: peptide having multiple activities (TVEELDKAFTWGAAAALAIGVIAINVGLAAGYCYNNNDVF; Peptide with targeting and/or antimicrobial activity)
- Organism, effect (morphology, biofilm and growth disruption) (S. mutans): S. mutans (S)
- Organism, effect (morphology, biofilm and growth disruption) (P. gingivalis): P. gingivalis (R)
- Target(s) (microorganisms bound by the targeting peptide) [7]: F. nucleatum; also recorded: P. gingivalis; also recorded: S. mutans; also recorded: T. denticola
- Activities (microorganisms): G B

Substance: PF-C293 (IIIILPKIYLVCKTV; Peptide with targeting and/or antimicrobial activity)
- Organism, effect (morphology, biofilm and growth disruption) (S. mutans): S. mutans (F)
- Organism, effect (morphology, biofilm and growth disruption) (F. nucleatum): F. nucleatum (T)
- Organism, effect (morphology, biofilm and growth disruption) (P. gingivalis): P. gingivalis (R)

Substance: RESKLIAMADMIRRRI-NH2 [PF-545]
- MIC (MRSA [1]): MRSA , 50 μM
- MIC (A. niger): A. niger, 50 μM
- MIC (B. subtilis [8]): B. subtilis, 25 μM
- Organism, effect (B. subtilis [9]): B. subtilis (I)
- Organism, effect (C. jeikeium): C. jeikeium (H)
- Organism, effect (E. faecalis): E. faecalis (H)
- Organism, effect (C. albicans): C. albicans (B)
- Target(s) [7, 10]: S. epidermidis; also recorded: E. coli; also recorded: P. aeruginosa; also recorded: S. pneumoniae; also recorded: E. faecalis; also recorded: C. jeikeium
- Activities (microorganisms): G B M

Substance: RRGCTERLRRMARRNAWDLYAEHFY [PF-148]
- MIC (A. niger): A. niger, 50 μM
- MIC (B. subtilis [8]): B. subtilis, 50 μM
- Organism, effect (B. subtilis [9]): B. subtilis (I)
- Organism, effect (C. jeikeium): C. jeikeium (H)
- Organism, effect (M. luteus): M. luteus (A)
- Organism, effect (MRSA [3]): MRSA (C)
- Organism, effect (S. epidermidis [4]): S. epidermidis (D)
- Organism, effect (S. pneumoniae [5]): S. pneumoniae (R)
- Organism, effect (C. jejuni): C. jejuni (H)
- Organism, effect (C. albicans): C. albicans (B)
- Activities (microorganisms): G B M

Substance: SLQSQLGPCLHDQRH [PF-448]
- MIC (A. niger): A. niger, 25 μM
- MIC (S. pneumoniae [6]): S. pneumoniae, 50 μM
- Organism, effect (S. pneumoniae [5]): S. pneumoniae (I)
- Target(s) [7, 10]: S. epidermidis; also recorded: M. luteus; also recorded: P. mirabilis; also recorded: E. coli; also recorded: S. pneumoniae; also recorded: E. faecalis; also recorded: C. jeikeium; also recorded: C. jejuni
- Activities (microorganisms): G B M
